Laboratory results from patent US5985926A, “Method for inhibiting intracellular viral replication” (Cell Therapeutics, Inc., priority 1997, dated 1999).

How the values were obtained:
[1] = system: HIV-LTR promoter (tat transactivation) in 293-EBNA cells; experiment: AP reporter gene expression from HIV-LTR promoter with tat expression vector, 293-EBNA cells; assay type: cell-based, HIV; human cells; conditions: 293-EBNA cells, HIV promoter, in words
Description: The plasmid construct, pHIV.AP, using the human immunodeficiency virus (HIV) long terminal repeat (LTR) promoter (derived from pU3R-III CAT, Sodroski et al., Science 227:171, 1985) to direct the expression of the sPAP reporter gene, was made by replacing the CMV promoter region from pCMV.AP with the HIV-LTR promoter. PHIV.AP was co-transfected with pSV2tat72, an expression vector for the 72 amino acids tat protein from HIV (Frankel and Pabo, Cell 55:1189-1193, 1988), into 293-EBNA cells (Invitrogen). The cultured cells were treated with various concentrations of the compounds. The expression of the alkaline phosphatase (AP) reporter gene in the individual cultures was measured by following change in absorbance at 405 nm of the cell conditioned media in the presence of a suitable substrate (e.g., ortho-nitrophenol phosphate) (Berger et al., Gene 66:1-10, 1988).
We set up a cell-based system with a cell line cotransfected with an expression plasmid using HIV-1-LTR promoter to direct synthesis of AP reporter gene and an expression plasmid to direct synthesis of the first 72 amino acids of tat protein. Plasmid pREP7 (Invitrogen) was converted to pREP7b by deleting 2,040 bp EBNA-1 coding region and by replacing the pBR322 origin of replication (ori) with the pBluescript KS (Stratagene) ori region. The cDNA for secreted placental alkaline phosphatase (AP) was generated by PCR with the primers (5'-[…]-3')(SEQ ID NO. 3) and (5'-[…]-3') (SEQ ID NO. 4)using the plasmid pGEM-4Z/PLAP489 (American Type Culture Collection) as the template. The 2,000 bp Xba I-Sal I fragment obtained was ligated into a Nhe I/Xho I vector derived from pREP7b to generate the plasmid pREP7b.AP. The 44 bp Xba I-Bgl II fragment from plasmid pMEP4 (Invitrogen)and the 36 bp BamH I-Kpn I fragment from pREP7 were ligated into the Xba I-Kpn I vector fragment from pREP7b.AP to generate the plasmid pMCS.AP. The 720 bp Xho I-Hind III fragment encoding the HIV-LTR promoter from the plasmid pU3R-III-CAT (Sodroski et al., Science 227:171-173, 1985) was ligated into the Xho I-Hind III vector fragment of PMCS.AP to generate the plasmid pHIV.AP. The CMV promoter was derived from the 600 bp Spe I-Asp718 I fragment from pCEP4 (Invitrogen). The 360 bp SV40 early promoter fragments were produced from pSV2tat72 (Frankel et al., Cell 55:1189-1193,1988) by PCR using the primers (5'-[…]-3') (SEQ ID NO. 5) and (5'-[…]-3') (SEQ ID NO. 6). The 480 bp phosphoglycerate kinase (PGK) promoter fragment was amplified from human placental genomic DNA (Promega, Madison, Wis.) based on published sequence (Pfeifer et al., Science 246:810-813, 1990) using the primers (5'-[…]-3') (SEQ ID NO. 7) and (5'-[…]-3') (SEQ ID NO. 8). The above fragments were ligated into the Xba I-Asp718 I vector fragment of pHIV.AP to generate pHIV2.AP, pHIV3.AP, pCMV.AP, pSVE.AP and PPGK.AP respectively. The tat-expression plasmid directed by HIV-LTR promoter, pHIV.tat, was generated by inserting the 400 bp EcoRV-HindIII fragment from pHIV.AP into the PvuII-HindIII vector fragment from pSV2tat72 (Frankel et al., Cell 55:1189-1193, 1988).
Transient transfections with various expression plasmids were performed on a human kidney embryonic cell line 293-EBNA (Invitrogen) using the cationic lipid DOTAP (Boehringer Mannheim). The cell culture media were changed 24 hr after transfection into a serum-free medium AIM V (Life Technologies) before addition of compounds or TNF-α (PeproTech) at the appropriate concentrations. AP activity measured by a colorimetric assay (Berger et al., Gene 66:1-10, 1988) was performed 19-24 hr later.

[2] = system: CMV promoter in 293-EBNA cells; experiment: AP reporter gene expression from CMV promoter, 293-EBNA cells stably transfected with pCMV.AP; assay type: cell-based, human cytomegalovirus; human cells
Protocol: An assay for measuring the anti-viral activity of the compounds involves testing the abilities of the compounds to inhibit gene expression directed by specific viral promoters in cell lines. Specifically, a plasmid construct, pCMV.AP, using the human cytomegalovirus (CMV) enhancer and promoter to direct the expression of the secreted human placental alkaline phosphatase reporter gene were transformed into a tumor cell line (e.g., 293-EBNA cells). The cultured cells were treated with various concentrations of the compounds. The expression of the alkaline phosphatase (AP) reporter gene in the individual cultures can then be measured by following the change in absorbance at A405 of the cell conditioned media in the presence of a suitable substrate (e.g., ortho-nitrophenol phosphate) (Berger et al., Gene 66:1,1988).
The construction of expression vectors for secreted placental alkaline phosphatase (sPAP) was performed by obtaining a mammalian episomal expression vector pBL3, derived from the plasmids pMEP4 and pCEP4 (Invitrogen Corp). Specifically, a 600 bp Spe I--Kpn I fragment spanning the CMV promoter from pCEP4 and a 9500 bp Xba I--Kpn I vector fragment from pMEP4 were isolated and ligated together to form pBL3. Full length sPAP cDNA was amplified by PCR using the plasmid pGEM4Z/SEAP (ATCC) as template with primers 5'-[…]-3' (SEQ ID NO. 1) and 5'-[…]-3' (SEQ ID NO. 2). The PCR product was then digested with Xba I and Sal I and inserted between the Nhe I site and the Xho I site within the multiple cloning region of pBL3. The resulting plasmid was designated as PCMV.AP.

293-EBNA cells [3] = experiment: Viability of 293-EBNA cells, Alamar Blue; assay type: cell-based, human
Protocol: (§1) Cell viability was measured by a colorimetric assay that uses Alamar Blue dye (Alamar, Inc.) to report cell proliferation, viability and cytotoxicity. This vital dye indicates cell activity by serving as substrate for mitochrondrial dehydrogenases for the formation of soluble dyes which can be quantitated by determining the difference in absorbance between A570 and A600 using a plate reader.
as §1, with “[…]” for “colorimetric”
This example illustrates that CT2576 suppressed both tat-dependent and TNF-α induced HIV-LTR transcription with an IC50 of approximately 10 μM. Study of the effects of CT2576 on cell toxicity was performed using the Alamar Blue™ dye (Alamar Biosciences) according to the manufacturer's instructions. CT2576 was not toxic to 293-EBNA cells at concentrations up to 35 μM. To show CT2576 can inhibit HIV expression, CT2576 was tested for the ability to block HIV p24 antigen expression in chronically or acutely infected cells. Specifically, CT2576 inhibited the TNF-α and IL-6 induced and the constitutive expression of HIV in the chronically infected U1 cells and in peripheral blood lymphocytes (PBL) freshly infected with a HIV strain from a clinical isolate with an IC50 of approximately 1 μM. Pharmacological inhibition of synthesis of selected PL may therefore be a novel therapeutic approach to suppression of HIV replication.

U1 cells = experiment: Cytotoxicity in U1 cells; assay type: cell-based, human
Description: We studied the effect of CT-2576 on HIV expression in a chronically HIV-1 infected promonocytic U1 cell line (Folks et al., Science 238:800-802, 1987). […] TNF-α and other cytokines can induce HIV expression in U1 cells. U1 cells also express HIV constitutively when grown to a relatively high density. […] An inhibitor of viral reverse transcriptase is expected to only protect new cells from becoming infected but not to affect viral production from cells already infected with HIV. […] While TNF-α induces HIV expression through activation of NFκB, IL-6 and IL-1 also stimulates HIV expression through other pathways independent of NFκB activation in U1 cells.

293-EBNA cells [4] = system: 293-EBNA cells
NFκB = NFκB activation in 293tat cells, electrophoretic mobility shift assay; assay type: cell-based, human; conditions: CT2576 12 μM, TNF-α 40 ng/ml or IL-1β 1 ng/ml
Protocol: (§2) Nuclear extracts (A) from 293tat cells were tested by EMSA for activation of NFκB. A radiolabeled 40-mer covering the NFκB sequences in the HIV promoter was used as a probe. Cells were incubated with CT2576 at 12 μM, human TNF-α at 40 ng/ml or IL-1β at 1 ng/ml, or pre-incubated for 30 min. with CT2576 and then stimulated with TNF-α or IL-1β for 18 hr prior to making extracts. RNA was extracted from 293tat cells (B) after treatment with CT2576 without or with TNF-α or IL-1β for 18 hr. Northern blots analysis were performed using probes derived from AP cDNA and G3PDH cDNA as a control for normalization of mRNA level. AP activity was determined in cell supernatants from the various samples.
(§3) NFκB binding activity in nuclear extracts (Dignam et al., Nucleic Acids Res. 11:1475-1489, 1983) of cells was measured by electrophoretic mobility-shift assay (EMSA) (Carthew et al., Cell 43:439-448, 1985) using 5'-labeled double-stranded synthetic DNA with two NF-κB motifs. Northern blot analysis was performed with total RNA run on 1% agarose/formaldehyde gel and probed with ^32 P-labeled cDNA of AP and glyceraldehyde-3-phosphate dehydrogenase (G3PDH).

AP mRNA in 293tat cells = experiment: AP mRNA level in 293tat cells, Northern blot; assay type: cell-based, human; conditions: with TNF-α or IL-1β
Protocol: as §2, §3

Molecule | inhibition of AP expression (HIV-LTR promoter) [1] | IC50 ([2]; Homo sapiens, 293-EBNA, FIG. 8, read-out: concentration inhibiting AP activity by 50% (CMV assay)) | inhibition of AP expression (CMV promoter) ([2]; in words) | cytotoxic effect on 293-EBNA cells (Alamar Blue) (293-EBNA cells [3]) | cytotoxicity in U1 cells at 25 μM (U1 cells; 25 μM, FIG. 12 bottom panel, TNFα) | cytotoxicity in U1 cells (U1 cells; FIG. 12 top panel, constitutive) | effect on cell viability / cytotoxicity (293-EBNA cells [4]) | activation of NFκB (NFκB) | AP transcript / mRNA steady-state level (AP mRNA in 293tat cells)
CCCCCCCCNCC(O)CCCCCCCCCn1c(=O)ccn(C)c1=O (stereo not drawn) [CT1827, 3-(11-octylamino-10-hydroxyundecyl)-1-methyluracil] | inhibit HIV promoter driven expression | 2 to 6 µM | inhibit CMV promoter driven expression | no significant cytotoxic effect | some cytotoxicity | some cytotoxicity | minimal cytotoxic effects | – | –
IL-1β: cytokine used as stimulant | – | – | – | – | – | – | – | NFκB was activated | induction of AP transcripts
